Results: patent US9181266B2, “2-piperidin-1-yl-acetamide compounds for use as tankyrase inhibitors” (NOVARTIS AG, priority 2011, dated 2015)

Columns and labels:
[1] = system: Non-small lung cancer ABC-1 cells; test: Cellular proliferation assay (CellTiter-Glo); assay type: cell-based; settings: Homo sapiens, 72 h; ABC-1 cells, 3 days of compound treatment; read-out: ABC-1 IC50
Experimental: Cellular Proliferation Assay to Determine Compound Inhibition of Cancer Cell Growth
Viable cells were measured after 3 days of compound treatment using the CellTiter-Glo assay (Promega, G7570). Assay was performed following the manufacture protocol.

[2] = molecular target: human tankyrase 1 PARP catalytic domain, TNKS1P (Homo sapiens (Human), UniProt O95271); test: TNKS1 autoparsylation assay (LC/MS detection of nicotinamide); settings: read-out: TNKS1 AP IC50, 20 nM enzyme, 250 μM β-NAD+, 60 min
human tankyrase 1 PARP catalytic domain, TNKS1P, sequence (O95271 1112-1317): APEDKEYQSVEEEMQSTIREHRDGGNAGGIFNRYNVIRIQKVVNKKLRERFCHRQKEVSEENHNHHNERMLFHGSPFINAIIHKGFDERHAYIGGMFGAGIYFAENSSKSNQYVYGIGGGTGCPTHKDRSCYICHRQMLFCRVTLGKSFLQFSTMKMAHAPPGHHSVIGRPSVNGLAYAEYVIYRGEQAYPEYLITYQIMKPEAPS

PARP2 = PARP2 (Mus musculus (Mouse), UniProt O88554); test: PARP2 autoparsylation assay (LC/MS detection of nicotinamide); assay type: biochemical; settings: 20 nM enzyme, 250 μM β-NAD+, 60 min
PARP2, sequence (O88554 whole entry): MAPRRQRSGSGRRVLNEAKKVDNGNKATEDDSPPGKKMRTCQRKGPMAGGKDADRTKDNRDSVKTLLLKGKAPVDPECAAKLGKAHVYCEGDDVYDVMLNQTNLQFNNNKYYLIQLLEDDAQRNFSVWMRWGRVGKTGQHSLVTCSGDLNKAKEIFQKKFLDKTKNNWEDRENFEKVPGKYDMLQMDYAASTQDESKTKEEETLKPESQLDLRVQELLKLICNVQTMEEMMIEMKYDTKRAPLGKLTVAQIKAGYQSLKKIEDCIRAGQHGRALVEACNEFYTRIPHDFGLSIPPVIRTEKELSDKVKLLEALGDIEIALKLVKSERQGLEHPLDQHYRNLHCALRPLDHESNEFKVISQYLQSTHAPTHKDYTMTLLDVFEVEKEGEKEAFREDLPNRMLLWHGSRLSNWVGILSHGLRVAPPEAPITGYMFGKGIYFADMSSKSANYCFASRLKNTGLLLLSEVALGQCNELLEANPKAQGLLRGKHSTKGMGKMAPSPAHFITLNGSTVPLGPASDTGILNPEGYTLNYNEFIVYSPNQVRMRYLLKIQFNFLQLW
Experimental: (§1) The autoparsylation activity of the TNKS 1/2 or PARP1/2 enzymes was measured by the liquid chromatography-mass spectrometry (LC/MS) detection of nicotinamide as readout. Compound activity in inhibiting the TNKS and PARP autoparsylation was evaluated by IC50 measurements.

Human PARP1 = Human PARP1 (Homo sapiens (Human), UniProt P09874); test: PARP1 autoparsylation assay (LC/MS detection of nicotinamide); assay type: biochemical; settings: 20 nM enzyme, 250 μM β-NAD+, 60 min
Human PARP1, sequence (P09874 whole entry): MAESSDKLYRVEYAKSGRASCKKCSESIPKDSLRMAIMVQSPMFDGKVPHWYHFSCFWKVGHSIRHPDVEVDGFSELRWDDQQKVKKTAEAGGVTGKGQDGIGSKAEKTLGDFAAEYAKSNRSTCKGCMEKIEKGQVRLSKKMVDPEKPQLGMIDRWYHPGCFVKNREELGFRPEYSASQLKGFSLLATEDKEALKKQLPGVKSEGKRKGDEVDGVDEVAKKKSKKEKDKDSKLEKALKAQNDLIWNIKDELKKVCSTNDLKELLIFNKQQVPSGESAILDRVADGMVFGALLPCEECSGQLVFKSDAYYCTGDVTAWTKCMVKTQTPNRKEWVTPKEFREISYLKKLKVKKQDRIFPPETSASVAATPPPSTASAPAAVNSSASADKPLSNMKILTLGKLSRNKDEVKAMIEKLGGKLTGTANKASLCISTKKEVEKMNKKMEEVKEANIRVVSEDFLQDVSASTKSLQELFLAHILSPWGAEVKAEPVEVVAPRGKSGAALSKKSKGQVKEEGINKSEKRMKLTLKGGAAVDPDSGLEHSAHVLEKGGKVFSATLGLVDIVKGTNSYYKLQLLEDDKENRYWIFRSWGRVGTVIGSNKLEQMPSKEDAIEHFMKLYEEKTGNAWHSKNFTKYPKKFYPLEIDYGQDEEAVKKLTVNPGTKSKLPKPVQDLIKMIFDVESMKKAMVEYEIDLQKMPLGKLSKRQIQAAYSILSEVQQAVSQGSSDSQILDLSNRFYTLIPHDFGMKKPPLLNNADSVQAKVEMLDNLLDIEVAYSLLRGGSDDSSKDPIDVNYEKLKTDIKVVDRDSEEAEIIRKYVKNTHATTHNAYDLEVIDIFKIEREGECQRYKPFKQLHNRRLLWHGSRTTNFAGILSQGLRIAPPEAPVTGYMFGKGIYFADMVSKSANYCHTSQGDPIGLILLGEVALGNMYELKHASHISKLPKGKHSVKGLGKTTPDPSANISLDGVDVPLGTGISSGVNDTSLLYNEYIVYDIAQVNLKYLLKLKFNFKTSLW
Experimental: as §1

[3] = molecular target: tankyrase 2 protein PARP domain, TNKS2P (Homo sapiens (Human), UniProt Q9H2K2); test: TNKS2 autoparsylation assay (LC/MS detection of nicotinamide); settings: read-out: TNKS2 AP IC50, 20 nM enzyme, 250 μM β-NAD+, 60 min
tankyrase 2 protein PARP domain, TNKS2P, sequence (Q9H2K2 959-1164): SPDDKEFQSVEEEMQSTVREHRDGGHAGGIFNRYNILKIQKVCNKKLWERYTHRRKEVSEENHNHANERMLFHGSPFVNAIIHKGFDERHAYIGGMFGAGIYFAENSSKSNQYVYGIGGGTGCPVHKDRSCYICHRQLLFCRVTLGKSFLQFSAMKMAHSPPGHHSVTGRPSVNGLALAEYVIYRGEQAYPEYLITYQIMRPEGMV

[4] = system: Axin2 protein in SW480 cells; test: Cellular ELISA assay of Axin2 protein stabilization; assay type: cell-based; settings: Homo sapiens, 24 hrs, read-out: Axin AC50
Method in brief: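 SW480 colorectal cells seeded overnight, treated with compound, then lysed. Axin2 in lysates measured by sandwich ELISA: anti-Axin2 capture antibody coated at 1 μg/ml (pH 9.2), lysate 2 h at room temperature, biotinylated anti-Axin2 detection 2 h, then streptavidin-HRP 30 min.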

[5] = system: Wnt ligand-induced signaling in HEK293 cells; test: Wnt-responsive Super-TOpFlash (STF) luciferase reporter gene assay; assay type: cell-based; settings: Homo sapiens, Wnt3A condition medium
Method in brief: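 HEK293 cells (8000/well, 5% FBS medium) treated with 20% mouse L-cell Wnt3A conditioned medium plus compounds in 10-point serial dilution; luciferase read next day. Inhibition calculated relative to Wnt3A-induced signal without compound and background without Wnt3A CM or compound.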

[6] = system: Herpes Simplex Virus (HSV); settings: cited from earlier work

Compound | IC50 [1] [nM] | IC50 [2] [nM] | IC50 (PARP2) [nM] | IC50 (Human PARP1) [nM] | IC50 [3] [nM] | AC50 [4] [nM] | IC50 [5] [nM] | HSV viral growth [6] | HSV viral protein expression [6]
O=C(c1ccc(OC(F)(F)F)cc1)C1CCN(CC(=O)N(Cc2nc3c(c(=O)[nH]2)COCC3)CC2CC2)CC1 [Example 70, N-Cyclopropylmethyl-N-(4-oxo-3,5,7,8-tetrahydro-4H-pyrano[4,3-c]pyrimidin-2-ylmethyl)-2-[4-(4-trifluoromethoxy-benzoyl)-piperidin-1-yl]-acetamide] | 392 | 37 ± 2 | > 19000 | > 19000 | 8 | 135 ± 7 | 8 ± 1.6 |  | 
O=C(c1ccc(OC(F)(F)F)cc1)C1CCN(CC(=O)N(Cc2nc3c(c(=O)[nH]2)COCC3)CC(F)F)CC1 [Example 71, N-(2,2-Difluoro-ethyl)-N-(4-oxo-3,5,7,8-tetrahydro-4H-pyrano[4,3-d]pyrimidin-2-ylmethyl)-2-[4-(4-trifluoromethoxy-benzoyl)-piperidin-1-yl]-acetamide] | 100 | 43 ± 1 | 11760 ± 50 | > 19000 | 15 ± 1 | 58 ± 12 | 17.5 ± 6.6 |  | 
CC#CCOc1ccc(C(=O)C2CCN(CC(=O)N(Cc3nc4c(c(=O)[nH]3)COCC4)CC3CC3)CC2)cc1 [Example 78, 2-[4-(4-But-2-ynyloxy-benzoyl)-piperidin-1-yl]-N-cyclopropylmethyl-N-(4-oxo-3,5,7,8-tetrahydro-4H-pyrano[4,3-d]pyrimidin-2-ylmethyl)-acetamide] | 2010 | 29 ± 2 | > 19000 | 14700 ± 4600 | 15 ± 2 | 1920 ± 240 | 155 ± 8 |  | 
Cc1ccc(C(=O)C2CCN(CC(=O)NCc3nc4c(c(=O)[nH]3)COCC4)CC2)cc1 [Example 83, 2-[4-(4-Methyl-benzoyl)-piperidin-1-yl]-N-(4-oxo-3,5,7,8-tetrahydro-4H-pyrano[4,3-d]pyrimidin-2-ylmethyl)-acetamide] | > 10000 | 64 | 2300 ± 360 | 8300 ± 3000 | 18 ± 2 | > 10000 | > 10000 |  | 
CCCOc1ccc(C(=O)C2CCN(CC(=O)NCc3nc4c(c(=O)[nH]3)COCC4)CC2)cc1 [Example 84, N-(4-Oxo-3,5,7,8-tetrahydro-4H-pyrano[4,3-d]pyrimidin-2-ylmethyl)2-[4-(4-propoxy-benzoyl)-piperidin-1-yl]acetamide] | 301 | 23 ± 5 | 2130 ± 440 | 4800 ± 250 | 13 ± 2 | 162 ± 19 | 11 ± 3 |  | 
O=C(CN1CCC(C(=O)c2ccc(OCC3CC3)cc2)CC1)NCc1nc2c(c(=O)[nH]1)COCC2 [Example 85, 2-[4-(4-Cyclopropylmethoxy-benzoyl)-piperidin-1-yl]-N-(4-oxo-3,5,7,8-tetrahydro-4H-pyrano[4,3-d]pyrimidin-2-ylmethyl)-acetamide] | 34 | 23 ± 2 | 1970 ± 260 | 4500 ± 580 | 10 ± 2 | 15 ± 2 | 5.2 ± 0.1 |  | 
O=C(CN1CCC(C(=O)c2ccc(OCC3CCC3)cc2)CC1)NCc1nc2c(c(=O)[nH]1)COCC2 [Example 86, 2-[4-(4-Cyclobutylmethoxy-benzoyl)-piperidin-1-yl]-N-(4-oxo-3,5,7,8-tetrahydro-4H-pyrano[4,3-d]pyrimidin-2-ylmethyl)-acetamide] | 41 | 30 ± 3 | 885 ± 37 | 2050 ± 370 | 12 ± 1 | 29 ± 8 | 820 ± 410 |  | 
O=C(CN1CCC(C(=O)c2ccc(OC3CCOCC3)cc2)CC1)NCc1nc2c(c(=O)[nH]1)COCC2 [Example 87, N-(4-Oxo-3,5,7,8-tetrahydro-4H-pyrano[4,3-d]pyrimidin-2-ylmethyl)-2-{4-[4-(tetrahydro-pyran-4-yloxy)-benzoyl]-1-yl}-acetamide] | 32 | 67 ± 4 | 2840 ± 330 | 5800 ± 1300 | 29 | 40 ± 6 | 14 ± 1 |  | 
COCCOc1ccc(C(=O)C2CCN(CC(=O)NCc3nc4c(c(=O)[nH]3)COCC4)CC2)cc1 [Example 88, 2-{4-[4-(2-Methoxy-ethoxy)-benzoyl]-piperidin-1-yl}-N-(4-oxo-3,5,7,8-tetrahydro-4H-pyrano[4,3-d]pyrimidin-2-ylmethyl)-acetamide] | 87 | 26 ± 1 | 2370 ± 520 | 6800 ± 2000 | 6 | 69 ± 7 | 21 ± 5 |  | 
O=C(CN1CCC(C(=O)c2ccc(OCCC3CC3)cc2)CC1)NCc1nc2c(c(=O)[nH]1)COCC2 [Example 89, 2-{4-[4-(2-Cyclopropyl-ethoxy)-benzoyl]-piperidin-1-yl}-N-(4-oxo-3,5,7,8-tetrahydro-4H-pyrano[4,3-d]pyrimidin-2-ylmethyl)-acetamide] | 87 | 21 ± 2 | 920 ± 340 | 1750 ± 20 | 12 ± 2 | 52 ± 2 | 17 ± 4 |  | 
O=C(CN1CCC(C(=O)c2ccc3c(c2)CCO3)CC1)NCc1nc2c(c(=O)[nH]1)COCC2 [Example 91, 2-[4-(2,3-Dihydro-benzofuran-5-carbonyl)-piperidin-1-yl]-N-(4-oxo-3,5,7,8-tetrahydro-4H-pyrano[4,3-c]pyrimidin-2-ylmethyl)-acetamide] | 116 | 40 ± 10 | 4530 ± 70 | 16700 ± 400 | 20 | 53 ± 25 | 10 ± 7 |  | 
COc1ccc(C(=O)C2CCN(CC(=O)NCc3nc4c(c(=O)[nH]3)COCC4)CC2)cc1C [Example 93, 2-[4-(4-Methoxy-3-methyl-benzoyl)-piperidin-1-yl]-N-(4-oxo-3,5,7,8-tetrahydro-4H-pyrano[4,3-d]pyrimidin-2-ylmethyl)-acetamide] | 2010 | 33 ± 14 | 4260 ± 210 | 17100 ± 800 | 12 | 1160 ± 150 | 52 ± 12 |  | 
Oc1nc(-c2ccc(C(F)(F)F)cc2)nc2c1CSCC2 [XAV939] |  |  |  |  |  |  |  | decreased viral growth | suppressed HSV viral protein expression
